Columns and labels:
[1] = biological target: T1, Human soluble guanylate cyclase enzyme (hsGC) (Homo sapiens, UniProt Q02108+Q02153); assay: Purified human sGC enzyme activity assay (without SNP); assay type: biochemical; settings: 30 μM compound, fold change of specific activity vs DMSO control
T1 construct: purchased Enzo Inc. ALX-201-177
T1 sequence (Q02153 1-619): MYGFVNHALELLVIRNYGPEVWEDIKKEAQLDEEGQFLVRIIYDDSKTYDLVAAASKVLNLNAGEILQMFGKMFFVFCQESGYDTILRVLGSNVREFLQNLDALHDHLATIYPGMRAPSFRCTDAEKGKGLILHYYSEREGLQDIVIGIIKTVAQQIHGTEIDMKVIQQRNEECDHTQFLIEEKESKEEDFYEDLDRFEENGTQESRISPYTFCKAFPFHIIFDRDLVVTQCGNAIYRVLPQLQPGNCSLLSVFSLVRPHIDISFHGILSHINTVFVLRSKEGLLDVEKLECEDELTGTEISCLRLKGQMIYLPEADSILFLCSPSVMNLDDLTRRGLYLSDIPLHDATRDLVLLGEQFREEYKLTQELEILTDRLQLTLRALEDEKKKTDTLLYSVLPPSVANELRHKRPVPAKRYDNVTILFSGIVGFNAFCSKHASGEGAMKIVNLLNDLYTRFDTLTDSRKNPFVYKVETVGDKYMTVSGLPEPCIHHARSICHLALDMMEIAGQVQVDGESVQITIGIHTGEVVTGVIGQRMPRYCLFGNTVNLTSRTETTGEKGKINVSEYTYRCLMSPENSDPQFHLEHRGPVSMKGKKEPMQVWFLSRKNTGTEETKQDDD
T1 sequence (Q02108 1-690): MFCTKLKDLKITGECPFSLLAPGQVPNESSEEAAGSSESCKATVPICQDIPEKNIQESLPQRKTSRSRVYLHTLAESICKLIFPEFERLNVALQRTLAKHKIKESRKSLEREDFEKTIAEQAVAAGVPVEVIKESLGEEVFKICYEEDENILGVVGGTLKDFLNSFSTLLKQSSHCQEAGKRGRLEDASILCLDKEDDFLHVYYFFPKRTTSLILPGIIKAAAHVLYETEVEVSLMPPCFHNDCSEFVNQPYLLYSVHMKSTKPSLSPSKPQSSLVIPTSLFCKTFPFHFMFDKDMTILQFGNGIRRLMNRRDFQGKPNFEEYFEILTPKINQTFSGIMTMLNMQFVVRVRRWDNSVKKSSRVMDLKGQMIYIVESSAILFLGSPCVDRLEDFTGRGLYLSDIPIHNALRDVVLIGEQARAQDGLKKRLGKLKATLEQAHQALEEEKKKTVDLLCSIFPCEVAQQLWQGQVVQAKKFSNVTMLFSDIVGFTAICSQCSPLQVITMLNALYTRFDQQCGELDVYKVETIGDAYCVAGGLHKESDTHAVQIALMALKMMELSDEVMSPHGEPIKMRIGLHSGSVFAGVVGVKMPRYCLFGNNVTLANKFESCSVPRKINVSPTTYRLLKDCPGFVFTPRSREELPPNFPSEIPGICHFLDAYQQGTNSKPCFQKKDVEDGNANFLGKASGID
Experimental: (§1) Human soluble guanylate cyclase enzyme (hsGC) obtained from Enzo Inc. (P/N: ALX-201-177) was used to evaluate the activity of test compounds. The assay reactions contained 0.1 M Tris (pH 8.0), 0.5 mg/mL BSA (pH 8.0), 2 mM DTT, 2 mM MgCl2, 300 μM GTP, 1 mM 3-isobutyl-1-methylxanthine (IBMX) and 5 ng human soluble guanylate cyclase enzyme. Test compounds in DMSO were then added (2 μL, 10 or 30 μM final concentration) and incubated (water, 200 μL, 96-well plate format) at 37° C. for 30 minutes. The controls were carried out using 2 μL DMSO. After the 30 minute incubation, the reaction was stopped with the addition of 200 μL of cold methanol. The plate was then centrifuged at 3,200 rpm for 10 minutes at room temperature. Supernatants (200 μL) were collected and transferred to a new 96 well plate for analysis by HPLC LC/MS/MS.
(§2) An 8 point cGMP (Sigma-Aldrich P/N: G6129) standard curve was prepared in assay buffer ranging from 0.156-20 μM. Samples for the cGMP standard curve were then diluted with an equal volume of methanol resulting in final cGMP concentrations of 0.078-10 μM.
(§3) The cGMP standard curve was generated using GraphPad Prism Software.
Calculations: Specific Activity was determined by the amount of cGMP formed (nmoles) per mg of sGC per min. Enzyme “fold-change” was calculated by dividing Specific Activity for test compounds by Specific Activity of DMSO controls.

[2] = biological target: T1, Human soluble guanylate cyclase enzyme (hsGC); assay: Purified human sGC enzyme synergy assay in the presence of sodium nitroprusside (SNP); assay type: biochemical; settings: 30 μM compound, 1 μM SNP; fold change of specific activity vs DMSO control
Experimental: as §1, §2, §3
Calculations: Specific Activity was determined by the amount of cGMP formed (nmoles) per mg of sGC per min. Enzyme “fold-change” was calculated by dividing Specific Activity for test compounds by Specific Activity of DMSO controls. […]

[3] = biological target: T2, soluble guanylate cyclase (sGC) (Homo sapiens, UniProt Q02108+Q02153); assay: sGC-HEK-cGMP assay with SNP incubation (LC/MS read-out); assay type: cell-based; settings: 10 μM SNP, 100% = BAY 41-2272 at 10 μM with 100 μM SNP
T2 construct: endogenously expressing soluble guanylate cyclase (sGC); endogenous in cells; host or cells: HEK293
T2 sequence (Q02153 1-619): T1 sequence (Q02153 1-619)
T2 sequence (Q02108 1-690): T1 sequence (Q02108 1-690)
Experimental: (Assay Run with SNP Incubation)
Human embryonic kidney cells (HEK293), endogenously expressing soluble guanylate cyclase (sGC), were used to evaluate the activity of test compounds. Compounds stimulating the sGC receptor should cause an increase in the intracellular concentration of cGMP. HEK 293 cells were seeded in Dulbecco's Modification of Eagle's Medium supplemented with fetal bovine serum (10% final) and L-glutamine (2 mM final) in a 200 μL volume at a density of 1×10^5 cells/well in a poly-D-lysine coated 96 well flat bottom plate and grown overnight at 37° C. Medium was aspirated and cells were washed with 1× Hank's Buffered Saline Salt Solution (200 μL). Cells were then incubated for 15 minutes at 37° C. with 200 μL of a 0.5 mM 3-isobutyl-1-methylxanthine (IBMX) solution. Test article and sodium nitroprusside solutions (x μM concentration for test article solution and 10 μM concentration for SNP solution; wherein x is one of the following concentrations);
were then added to the assay mixture (2 μL each) and the resulting mixture incubated at 37° C. for 10 minutes. After the 10 minute incubation, the assay mixture was aspirated and 0.1M HCl (200 μL) was added to the cells. The plate was incubated at 4° C. for 30 minutes in the 0.1M HCl to stop the reaction and lyse the cells. The plates were then centrifuged at 1,200 g for 5 minutes at room temperature. Supernatants were collected and transferred to a new flat bottom 96 well plate for analysis by HPLC-MS. Vehicle controls were carried out using DMSO (1%) solutions. A known sGC stimulator, BAY 41-2272, was used as the positive control. Samples were diluted with an equal volume of 1 M Ammonium Acetate (pH 7) to neutralize samples for better chromatography. A 2×cGMP standard solution was prepared in 0.1 M HCl and then diluted with an equal volume of 1 M Ammonium Acetate, with the following final concentrations in nM: 1024, 512, 256, 128, 64, 32, 16, 8, 4, 2, 1. cGMP concentrations in the test plates were determined from each sample using the LC/MS conditions shown in Table 2 below and the calculated cGMP standard curve. EC50 values were calculated from concentration-response curves generated with GraphPad Prism Software.
The biological activities of some of the compounds of Formula I or Formula Ib determined with the sGC-HEK assay with SNP incubation are summarized in Tables 3A and 3B.

[4] = system: Guinea pig tracheal smooth muscle; assay: Electrical field stimulated guinea pig tracheal smooth muscle contraction (ex vivo); settings: sub-maximal EFS; pooled data of three experiments; 95% CI 0.78-0.94; read-out: IC50, inhibition of EFS-induced tracheal smooth muscle contraction
Description: It is possible to assess the bronchodilating effects of sGC stimulators by using the system described below. This system allowed us to determine potency, efficacy and duration of action of several sGC stimulators, as well as to assess potential side effects such as blood pressure, or heart rate changes.
Animals: Guinea pig, Dunkin Hartley, male, Full barrier-bred and certified free of specific micro-organisms on receipt 525-609 g on the experimental day, Harlan UK Ltd. Guinea pigs were housed in a group of 4 in solid-bottomed cages with Gold Flake bedding in a controlled environment (airflow, temperature and humidity). Food (FD1, Special Diet Services) and water were provided ad libitum.
On each experimental day, a guinea pig was killed by exposure to a rising concentration of CO2 and the trachea removed. […] Tissues were washed with Kreb's buffer and stimulated using the previously determined sub-maximal voltage for 1 hour to establish a stable baseline contraction prior to assessment of compound activity.
A cumulative dose response curve (DRC) to each test substance was then performed and changes in smooth muscle contraction measured. The effect of each test substance in each experiment was expressed as a percentage inhibition of the baseline contraction, normalized to the relevant vehicle controls. […]

Enzyme Activity (increase at 30 μM without SNP) [1] | Enzyme Activity (increase at 30 μM with SNP) [2] | Emax at 10 µM ([3]; 10 μM compound, read-out: HEK assay (Percent Emax at 10 μM)) [%] | Emax at 30 µM ([3]; 30 μM compound, read-out: HEK assay (Percent Emax at 30 μM)) [%] | Compound | IC50 [4] [nM]
C (C = 5 to <10 fold increase) | E (E = 20 to 30 fold increase) | 60 to 80 | 60 to 80 | Nc1nc(-n2cc(-c3ncco3)c(Cc3ccccc3F)n2)ncc1F [Compound I-8] | 
 |  |  |  | CC(C)[N+]1(C)[C@@H]2CC[C@H]1CC(OC(=O)C(CO)c1ccccc1)C2 (some centres unmarked) [Ipratropium bromide] | 0.86

Source: patent US9487508B2, “SGC stimulators” (IRONWOOD PHARMACEUTICALS, INC., priority 2012, dated 2016)
